{"source": "patent US20260364214A1", "about": "“MULTIVALENT FIBROBLAST ACTIVATION PROTEIN LIGANDS FOR TARGETED DELIVERY APPLICATIONS” (Philochem AG, priority 2022, published 2026)", "key": {"[1]": {"experiment": "Determination of Log D7.4 (1-octanol/PBS)", "type": "physicochemical", "conditions": "1-octanol/PBS pH 7.4; 177Lu-labeled", "procedure": "The lipophilicity of ^177Lu-ESV6, ^177Lu-Bi-ESV6, ^177Lu-Tri-ESV6 and ^177Lu-FAP-2286 was determined as follows. 100 μL aliquots of the radioligand (~1 MBq) in PBS buffer were added to PBS buffer (500 μL, pH 7.4) and 1-octanol (600 μL). The two-layer mixture were vigorously shaken for 10 minutes on a vortex mixer and then centrifuged at 700 rpm for 5 min to facilitate the separation. 100 μL aliquots of both layers were measured in a Packard Cobra Gamma Counter and the partition coefficient was determined by dividing cpm (octanol) by cpm (PBS) and indicated as Log D7.4. • Log D7.4 (^177Lu-ESV6): −4.13 • Log D7.4 (^177Lu-Bi-ESV6): −3.75 • Log D7.4 (^177Lu-Tri-ESV6): −3.10 • Log D7.4 (^177Lu-FAP-2286): −3.05"}, "SK-RC-52.hFAP tumors [2]": {"test_system": "SK-RC-52.hFAP tumors", "experiment": "Therapeutic efficacy in dose escalation and in combination with L19-IL2", "type": "in vivo, mouse (athymic Balb/c AnNRj-Foxn1)", "conditions": "5, 15 or 30 MBq/mouse on day 7", "procedure": "Prior to the therapy studies, precursors (25 nmol) were dissolved in 25 μL of milliQ water, then sodium acetate buffer (75 μL, 1 M in water) and 25, 75 or 150 MBq of ^177Lu solution were added. The mixture was heated at 90 °C for 1 minutes followed by dilution with 400 μL of PBS to afford a final volume of 500 μL (5 doses of 100 μL each). Quality control of radiosynthesis was performed using radio-HPLC.\nThe anti-cancer efficacy of L19-IL2 as single agent (3×0.05 mg/mouse), ^177Lu-Tri-ESV6 as single agent at different doses (5 MBq/mouse, 15 MBq/mouse, 30 MBq/mouse), ^177Lu-Tri-ESV6+L19-IL2 combination (5 MBq/mouse of ^177Lu-Tri-ESV6 followed by three injections of L19-IL2 at 0.05 mg/mouse) or saline was assessed in athymic Balb/c AnNRj-Foxn1 mice bearing SK-RC-52.hFAP tumor in the right flank. Therapy experiments started when the average volume of established tumors had reached 100-150 mm^3. Body weight of the animals and tumor volume were daily measured and recorded. Tumor dimensions were measured with an electronic caliper and tumor volume was calculated with the formula (long side, mm)×(short side, mm)×(short side, mm)×0.5. Animals were euthanized when one or more termination criterium indicated by the experimental license was reached. Prism 7 software (GraphPad Software) was used for data analysis. […]"}, "SK-RC-52.hFAP cells": {"test_system": "SK-RC-52.hFAP cells", "experiment": "Cell efflux assay with 177Lu-labeled ligands", "type": "cell-based", "procedure": "SK-RC-52.hFAP cells, were cultured using RPMI medium supplemented with 10% Fetal Bovine Serum (FBS) and 1% Antibiotic-Antimytotic. Cells were seeded in 24-well plates (200'000 cells/well, 0.5 mL/well) and incubated overnight at 37 °C, 5% CO2. Then, media was removed, cells were washed with PBS (2×0.5 mL) and incubated with a solution of ^177Lu-ESV6, ^177Lu-Bi-ESV6, ^177Lu-Tri-ESV6 or ^177Lu-FAP-2286 (10 KBq, […], 0.5 mL). After 1 h, media was removed, and cells were washed with PBS (2×0.5 mL) and incubated with fresh RPMI medium without supplements. Fractions of the culture media were measured with a gamma counter (Packard Cobra) at different time-points. Percentage of compound bound was calculated as fraction of the total activity and corrected for the ^177Lu decay, as shown in FIG. 3."}, "SK-RC-52.hFAP tumors [3]": {"test_system": "SK-RC-52.hFAP tumors", "experiment": "177Lu biodistribution at different radioisotope molar activities", "type": "in vivo, mouse", "conditions": "0.2 vs 4.8 MBq/nmol; 24 h post injection", "procedure": "Prior to the biodistribution study at different specific activities (FIG. 19), precursors (20 nmol) were dissolved in milliQ water and diluted with sodium acetate (1 M in water, pH=4.5). ^177Lu solution (4 or 96 MBq) were added and the mixture was heated at 90 °C for 10 minutes, followed by dilution with PBS to achieve final volume of 400 μL (4 doses of 100 μL each, corresponding to 0.2 MBq/nmol and 4.8MBq/nmol, respectively).\nResults of the ^177Lu biodistribution study at different specific activities: low (0.2 MBq/nmol) and high (4.8 MBq/nmol) with ^177Lu Tri-ESV6-DOTAGA are shown in FIG. 19."}, "SK-RC-52.hFAP tumors [4]": {"test_system": "SK-RC-52.hFAP tumors", "experiment": "Dose escalation / dose optimization for radiotherapeutic applications", "type": "in vivo, mouse (female athymic Balb/c AnNRj-Foxn1)", "conditions": "24 h", "procedure": "Prior to the dose optimization study for radiotherapeutic applications, precursors (0.24 to 180 nmol) were dissolved in milliQ water and diluted with sodium acetate (1 M in water, pH=4.5). ^177Lu solution (4 MBq) were added and the mixture was heated at 90 °C for 10 minutes, followed by dilution with PBS to achieve final volume of 400 μL (4 doses of 100 μL each).\nFemale athymic Balb/c AnNRj-Foxn1 mice bearing subcutis SK-RC-52.hFAP tumors were injected intravenously with eight different doses of ^177Lu-Tri-ESV6-DOTAGA ranging from 3 nmol/kg to 2250 nmol/kg. The mice were sacrificed after 24 h and tumor and healthy organs were harvested and measured with a gamma counter. Since the best tumor to organ ratios are obtained with high doses ranging between 90 and 250 nmol/kg, we anticipate that the ideal dose in human patients for radiotherapeutic applications will be between 1 and 3 milligram per patient. e) Therapeutic efficacy evaluation in tumor bearing mice in dose escalation and in combination with L19-IL2"}}, "data": [{"compound": "N#CC1CC(F)(F)CN1C(=O)CNC(=O)c1ccnc2c(NC(=O)CCC(=O)NCCCCC(NC(=O)CCC(=O)Nc3cccc4c(C(=O)NCC(=O)N5CC(F)(F)CC5C#N)ccnc34)C(=O)NCCNC(=O)CCC(C(=O)O)N3CCN(CC(=O)[O-])CCN(CC(=O)[O-])CCN(CC(=O)[O-])CC3)cccc12.[177Lu+3]", "note": "(centres unmarked) [^177Lu-Bi-ESV6-DOTAGA, reference compound]", "values": [{"measurement": "Log D7.4", "setting": "[1]", "result": "−3.75"}]}, {"compound": "N#C[C@@H]1CC(F)(F)CN1C(=O)CNC(=O)c1ccnc2c(NC(=O)CCC(=O)NCCNC(=O)CCC(C(=O)O)N3CCN(CC(=O)[O-])CCN(CC(=O)[O-])CCN(CC(=O)[O-])CC3)cccc12.[177Lu+3]", "note": "(some centres unmarked) [^177Lu-ESV6-DOTAGA, reference compound]", "values": [{"measurement": "Log D7.4", "setting": "[1]", "result": "−4.13"}]}, {"compound": "N#CC1CC(F)(F)CN1C(=O)CNC(=O)c1ccnc2c(NC(=O)CCC(=O)NCCNC(=O)CCOCC(COCCC(=O)NCCNC(=O)CCC(=O)Nc3cccc4c(C(=O)NCC(=O)N5CC(F)(F)CC5C#N)ccnc34)(COCCC(=O)NCCNC(=O)CCC(=O)Nc3cccc4c(C(=O)NCC(=O)N5CC(F)(F)CC5C#N)ccnc34)NC(=O)CCC(C(=O)O)N3CCN(CC(=O)[O-])CCN(CC(=O)[O-])CCN(CC(=O)[O-])CC3)cccc12.[177Lu+3]", "note": "(centres unmarked) [^177Lu-Tri-ESV6-DOTAGA]", "values": [{"measurement": "Log D7.4", "setting": "[1]", "result": "−3.10"}, {"measurement": "therapeutic activity, in words", "setting": "SK-RC-52.hFAP tumors [2]", "result": "dose-dependent therapeutic activity"}, {"measurement": "residence time / efflux, in words", "setting": "SK-RC-52.hFAP cells", "result": "longer residence time in FAP-positive tumor cells, followed by ^177Lu-Bi-ESV6, ^177Lu-ESV6 and ^177Lu-FAP2286"}, {"measurement": "effect of molar activity on biodistribution, in words", "setting": "SK-RC-52.hFAP tumors [3]", "result": "does not significantly interfere with the advantageous biodistribution"}, {"measurement": "% ID/g in tumor, in words", "setting": "SK-RC-52.hFAP tumors [4]; highest doses (>90 nmol/kg)", "result": "drops"}, {"measurement": "uptake in healthy organs, in words", "setting": "SK-RC-52.hFAP tumors [4]; lowest doses (<10 nmol/kg)", "result": "partially uptaken in healthy organs"}]}]}
